These results are taken from patent US12612637B2, “Compositions and methods for DHFR tunable protein regulation” (Obsidian Therapeutics, Inc., priority 2019, dated 2026).

The conditions of data set [1]: cited from earlier work; for Duration of action: in vivo.
The next data set deals with Jurkat cells. The data set is described as follows: FACS GFP expression of transduced Jurkat cells treated with DMSO, 2 μM or 50 μM TMP. The conditions noted are these: 2 μM TMP or 50 μM TMP, 24 hours. Type of data set: cell-based. As to the method:
Clones selected from the final library after 4 rounds of sorting were cloned into pLVX.AcGFP.P2A.mcherry constructs and transduced into Jurkat cells for further characterization of DD activity. Transduced Jurkat cells were plated using 500,000 cells per well (1 ml total volume per well in 24 well plate) in duplicate for each condition. Cells were treated with DMSO (control), 2 μM TMP or 50 μM trimethoprim (TMP) for 24 hours prior to fluorescent activated cell sorting (FACS). Cells were characterized by FACS to determine their levels of GFP in the presence and absence of TMP.

Like-named read-outs stand apart in the source and are kept apart here. Where only a bound is given, the exact number is not on record here.

For `CN(Cc1cnc2nc(N)nc(N)c2n1)c1ccc(C(=O)N[C@@H](CCC(=O)O)C(=O)O)cc1` [Methotrexate], the Duration of action in data set [1] was more than 12 h.
Usually Cmax stands for the peak of the concentration-time curve. Regarding `COc1cc(Cc2cnc(N)nc2N)cc(OC)c1OC` [Trimethoprim], the figures for the Cmax in data set [1] (IV) and in data set [1] (PO) were 25 µM and 1 µM, respectively. Besides, in data set [1], the Duration of action is 2 to 72 h.
Take “hDHFR-045: hDHFR (Y122I) library clone cloned into pLVX.AcGFP.P2A.mcherry construct”: the “GFP expression upon addition of TMP” value in the data set with Jurkat cells is given as “higher levels of GFP expression upon addition of TMP”.
On the same count and under the same terms, the result for “hDHFR-046: hDHFR (Y122I) library clone cloned into pLVX.AcGFP.P2A.mcherry construct” reads “higher levels of GFP expression upon addition of TMP”.
